The values that follow come from article PMC4454357 (Archives of biochemistry and biophysics, 2015).

Broadly, the EC50 is the midpoint of the concentration-response curve.

The target of data set [1] is T1, AhR (Cavia porcellus, UniProt Q6J287).
T1 sequence (Q6J287 1-846): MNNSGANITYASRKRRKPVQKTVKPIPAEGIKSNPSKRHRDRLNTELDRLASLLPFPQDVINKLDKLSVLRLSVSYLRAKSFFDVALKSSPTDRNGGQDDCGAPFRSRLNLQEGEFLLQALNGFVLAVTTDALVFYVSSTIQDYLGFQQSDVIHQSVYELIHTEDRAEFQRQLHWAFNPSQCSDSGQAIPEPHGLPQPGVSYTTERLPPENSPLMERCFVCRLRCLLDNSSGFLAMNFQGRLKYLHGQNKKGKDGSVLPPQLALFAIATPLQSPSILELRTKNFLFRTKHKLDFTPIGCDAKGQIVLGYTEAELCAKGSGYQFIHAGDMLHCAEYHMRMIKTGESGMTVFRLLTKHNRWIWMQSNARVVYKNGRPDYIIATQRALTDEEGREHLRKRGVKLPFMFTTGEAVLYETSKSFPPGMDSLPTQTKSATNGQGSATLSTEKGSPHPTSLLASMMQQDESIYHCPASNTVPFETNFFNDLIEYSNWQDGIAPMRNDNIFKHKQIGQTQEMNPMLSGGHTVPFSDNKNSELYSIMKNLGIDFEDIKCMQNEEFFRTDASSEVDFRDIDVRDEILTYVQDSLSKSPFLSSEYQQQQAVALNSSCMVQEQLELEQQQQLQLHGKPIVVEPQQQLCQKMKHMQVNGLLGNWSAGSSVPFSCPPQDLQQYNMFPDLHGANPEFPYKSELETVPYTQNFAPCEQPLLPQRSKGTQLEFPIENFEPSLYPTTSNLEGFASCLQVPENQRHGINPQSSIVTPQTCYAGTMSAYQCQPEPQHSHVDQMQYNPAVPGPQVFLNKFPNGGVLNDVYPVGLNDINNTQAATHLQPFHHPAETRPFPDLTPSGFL

The target of data set [2] is T2, AhR (Rattus norvegicus, UniProt P41738).
T2 sequence (P41738 10-853): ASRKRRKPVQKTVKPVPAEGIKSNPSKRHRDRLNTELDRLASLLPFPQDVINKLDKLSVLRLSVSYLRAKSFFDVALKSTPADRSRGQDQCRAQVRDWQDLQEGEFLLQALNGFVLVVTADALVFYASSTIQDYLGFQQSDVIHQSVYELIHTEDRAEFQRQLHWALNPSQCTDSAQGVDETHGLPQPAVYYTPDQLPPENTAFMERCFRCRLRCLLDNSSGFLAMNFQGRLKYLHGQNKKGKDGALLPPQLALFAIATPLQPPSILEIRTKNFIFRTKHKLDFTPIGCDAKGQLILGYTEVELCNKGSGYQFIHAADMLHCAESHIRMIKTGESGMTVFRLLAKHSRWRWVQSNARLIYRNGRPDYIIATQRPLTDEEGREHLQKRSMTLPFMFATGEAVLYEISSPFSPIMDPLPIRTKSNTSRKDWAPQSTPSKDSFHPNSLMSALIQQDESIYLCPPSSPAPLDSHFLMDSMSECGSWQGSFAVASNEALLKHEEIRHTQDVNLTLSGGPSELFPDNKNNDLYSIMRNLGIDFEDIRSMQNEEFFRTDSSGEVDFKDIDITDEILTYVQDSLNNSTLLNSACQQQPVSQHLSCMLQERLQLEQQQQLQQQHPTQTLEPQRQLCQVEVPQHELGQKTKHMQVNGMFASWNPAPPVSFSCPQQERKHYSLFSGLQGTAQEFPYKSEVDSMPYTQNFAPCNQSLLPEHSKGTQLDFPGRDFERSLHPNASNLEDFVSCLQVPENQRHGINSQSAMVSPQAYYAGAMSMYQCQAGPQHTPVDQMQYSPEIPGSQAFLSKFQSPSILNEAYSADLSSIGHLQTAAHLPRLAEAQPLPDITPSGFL
The experiment in a line: AhR-dependent luciferase reporter gene assay, rat hepatoma H4L7.5c2.

Data set [3] concerns the target T3, AhR (Homo sapiens, UniProt P35869).
T3 sequence (P35869 11-848): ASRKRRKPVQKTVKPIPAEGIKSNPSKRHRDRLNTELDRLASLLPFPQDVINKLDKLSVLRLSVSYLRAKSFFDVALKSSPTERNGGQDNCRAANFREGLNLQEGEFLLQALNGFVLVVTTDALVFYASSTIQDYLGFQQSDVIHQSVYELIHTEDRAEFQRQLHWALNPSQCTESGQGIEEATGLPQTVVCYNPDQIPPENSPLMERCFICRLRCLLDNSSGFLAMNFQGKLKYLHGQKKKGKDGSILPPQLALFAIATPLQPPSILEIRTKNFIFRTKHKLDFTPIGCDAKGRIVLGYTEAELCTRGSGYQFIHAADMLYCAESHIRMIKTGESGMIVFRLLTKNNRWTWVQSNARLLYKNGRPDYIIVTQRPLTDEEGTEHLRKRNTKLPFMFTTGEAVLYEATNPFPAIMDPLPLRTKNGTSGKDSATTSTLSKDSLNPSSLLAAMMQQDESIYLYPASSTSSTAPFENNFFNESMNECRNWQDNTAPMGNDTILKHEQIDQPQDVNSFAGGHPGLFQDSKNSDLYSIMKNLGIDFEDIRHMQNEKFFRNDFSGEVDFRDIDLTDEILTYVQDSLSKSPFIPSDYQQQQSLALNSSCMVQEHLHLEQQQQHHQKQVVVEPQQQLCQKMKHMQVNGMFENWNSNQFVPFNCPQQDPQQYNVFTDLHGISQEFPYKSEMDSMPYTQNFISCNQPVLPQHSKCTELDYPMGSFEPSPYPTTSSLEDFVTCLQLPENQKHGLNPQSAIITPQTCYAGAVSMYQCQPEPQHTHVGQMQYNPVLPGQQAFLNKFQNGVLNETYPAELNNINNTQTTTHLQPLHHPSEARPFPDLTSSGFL

For data set [4], the target named is T2, AhR.
For data set [5], the target named is T3, AhR. The experiment in a line: AhR-dependent luciferase reporter gene assay, human hepatoma HG2L7.5c1. Particulars: for difference in relative potency among the cell lines studied: human, mouse, rat and guinea pig cell lines compared. In general terms: A reporter such as luciferase makes a cellular process visible.
In data set [6] the target is T1, AhR. This is another data set of the same source.
In data set [7] the test system is AhR. The data set can be described thus: AhR-dependent luciferase reporter gene assay, mouse hepatoma H1L7.5c3. Particulars: EC50 mouse versus rat cell lines.
Data set [8] deals with AhR (Mus musculus, UniProt P30561). The data set is described as above. Particulars: mouse cell line.
Chain of AhR (Mus musculus, UniProt P30561) (P30561 10-848): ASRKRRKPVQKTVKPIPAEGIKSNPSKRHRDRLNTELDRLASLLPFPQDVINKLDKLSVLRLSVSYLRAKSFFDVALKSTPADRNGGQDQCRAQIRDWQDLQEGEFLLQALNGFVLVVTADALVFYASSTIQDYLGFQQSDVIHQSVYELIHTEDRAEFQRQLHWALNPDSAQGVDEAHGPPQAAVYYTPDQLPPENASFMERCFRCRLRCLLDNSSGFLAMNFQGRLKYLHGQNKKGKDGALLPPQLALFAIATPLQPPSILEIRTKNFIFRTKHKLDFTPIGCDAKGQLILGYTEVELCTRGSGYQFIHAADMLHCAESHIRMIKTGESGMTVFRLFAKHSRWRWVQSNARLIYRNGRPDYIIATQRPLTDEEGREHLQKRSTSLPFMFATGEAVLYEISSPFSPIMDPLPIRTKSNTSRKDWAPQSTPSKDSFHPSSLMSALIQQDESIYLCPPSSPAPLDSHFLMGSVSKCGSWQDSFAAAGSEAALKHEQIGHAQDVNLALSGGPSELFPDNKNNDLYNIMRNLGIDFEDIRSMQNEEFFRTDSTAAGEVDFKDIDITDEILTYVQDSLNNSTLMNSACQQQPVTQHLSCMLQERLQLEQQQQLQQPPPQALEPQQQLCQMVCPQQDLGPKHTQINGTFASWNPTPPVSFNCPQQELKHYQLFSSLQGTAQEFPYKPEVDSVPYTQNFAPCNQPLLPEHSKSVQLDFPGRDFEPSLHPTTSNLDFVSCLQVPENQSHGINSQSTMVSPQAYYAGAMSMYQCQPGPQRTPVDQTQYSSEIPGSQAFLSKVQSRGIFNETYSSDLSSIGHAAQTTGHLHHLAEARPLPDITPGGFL
In data set [9] the target is T4, guinea pig hepatic cytosolic AhR (Cavia porcellus, UniProt Q6J287).
T4 sequence (Q6J287 1-846): T1 sequence (Q6J287 1-846)
The experiment in a line: [3H]TCDD competitive ligand binding, hydroxyapatite binding assay. Particulars: 2 nM [3H]TCDD, 1 h, room temperature, guinea pig hepatic cytosol.

The mark [10] stands for this setting: read-out: Relative potency (EC50) as activators of AhR-dependent reporter gene expression, Human cell line HG2L7.5c1, 6 h, mean of triplicate concentration response analysis.

Where two headings read alike, the source gives them in different places.

With `O=C1c2ccccc2-n2c1nc1ccccc1c2=O` [Tryptanthrin, tryptanthrin], the 50% effective concentration (EC50) at AhR [1] amounted to 181 nM; at AhR [2], 946 nM.
`O=Cc1c2[nH]c3ccccc3c2cc2[nH]c3ccccc3c12` [FICZ, 6-formyl-indolo[3,2-b]carbazole] showed an EC50 at AhR [2] of 0.078 nM.
`O=C(c1c[nH]c2ccccc12)c1nccc2c1[nH]c1ccccc12` [Pityriacitrin, pityriacitrin]: the EC50 at AhR [3] worked out at 4.9 nM; on AhR [4], 4.3 nM; on AhR [6], 4.3 nM. Moreover, the “difference in relative potency among the cell lines studied” value on AhR [5] is on record as “lowest degree of difference”.
In the case of `O=C1Nc2ccccc2/C1=C1/Nc2ccccc2C1=O` [Indirubin, indirubin], the values for the 50% effective concentration (EC50) on AhR [1] and at AhR [2] were 0.95 nM and 0.94 nM, respectively.
On to `Clc1cc2c(cc1Cl)Oc1cc(Cl)c(Cl)cc1O2` [TCDD, 2,3,7,8-tetrachlorodibenzo-p-dioxin, reference compound], for which the EC50 came out at 0.1 nM on AhR [1], 0.53 nM on AhR [5] and 0.1 nM on AhR [2].
Take `O=Cc1c(Cc2c[nH]c3ccccc23)[nH]c2ccccc12` [Malassezin, malassezin]: the EC50 came to 11.1 nM at AhR [3], 56 nM at AhR [4] and 276 nM at AhR [6]. Also, the “relative inducing potency difference between the human and mouse cell lines” value at AhR [5] (EC50 human versus mouse hepatoma cells) is recorded as ~ 26 fold.
In the case of indolo[3,2-b]carbazole [ICZ], the “difference in EC50 between the mouse and rat cell lines” value in the data set with AhR [7] was ~ 109 fold. For the same molecule, the EC50 at AhR [8] was 0.009 nM; at AhR [5] (setting [10]), 0.6 nM.
As for pityriazepin, the “displacement of [3H]TCDD” value in data set [9] is “displaced [^3H]TCDD from guinea pig hepatic cytosol in a concentration-dependent manner”. Further, the “difference in relative potency among the cell lines studied” value on AhR [5] is on record as “lowest degree of difference”. Moreover, the concentration giving a half-maximal response (EC50) at AhR [5] (setting [10]) turned out to be 5 nM.
